This is an account of results in US20240197700A1, “Methods and Compositions for Treating Lysosomal Storage Disorders” (Sanford Health, priority 2021, published 2024).

For this assay, the system named is NCL MEFs. Description: LysoTracker signal in Batten disease mouse embryonic fibroblasts. It counts as cell-based. The procedure: Wild type (WT) and mutant cells were treated with vehicle or LM11A-31 (100 nM, 1 μM, 10 μM). Cells were plated on day 0 and dosed with drug-containing media on DIV3 and DIV5. Concentrations of drug are shown on the x-axis above each image column; genotypes are shown to the left of each row. […] Increasing concentrations of LM11A-31 are shown along the x-axis.
Specific experimental details are included in figure legends. In general, after collection and preparation, MEFs and PNCs were dosed with vehicle or semaglutide (10 nM, 100 nM. or 1 μM) on DIV3 and DIV5. On DIV7, cells were exposed to the following dyes: Hoechst 33342 (1:1000 dilution), LysoTracker™ Red DND-99 (1:10,000 dilution), fixed. and imaged. Mice were injected three times per week with vehicle or semaglutide (2.571 μg/mouse, 25.71 μg/mouse) beginning at wean. Body weight was measured at 4, 6, 8, 12, and 16 weeks of age. At 16 weeks of age, Cln3^Δex7/8 mice along with age matched wildtype control mice were CO2 euthanized and intracardially perfused with PBS. Brains were collected and placed on a 1 mm sagittal brain block. Brains were sliced at the midline and 3 mm right of the midline. The 3 mm sagittal piece was flash frozen with −50° C. isopentane and then sectioned on a cryostat at 16 μm and placed on slides. For ASM measurements, slides were counterstained with DAPI. The other hemisphere was fixed in 4% PFA and sectioned at 50 microns on a vibratome. Immunohistochemistry was performed on free-floating sections. For SubC, GFAP, and CD68 immunolabeling, primary antibodies included mitochondrial anti-ATP synthase subunit C (Abcam, ab181243; 1:1000), anti-GFAP (Dako, Z0334; 1:5000), anti-CD68 (AbD Serotec, MCA1957; 1:2000), and secondary antibodies included anti-rabbit biotinylated (Vector Labs, BA-1000 1:1000) and anti-rat (Vector Labs, BA-9400 1:1000). Coverslips were mounted on slides using antifade-mounting media and were stored in the dark before imaging. ASM slides were imaged on a Nikon ECLIPSE™ Ni-E upright microscope with a CoolSNAP™ DYNO camera. Images were extracted from S1BF of the somatosensory cortex, CA3 of the hippocampus, and the VPM/VPL of the thalamus, with multiple images taken of multiple tissues from each animal. IHC slides were imaged and analyzed using an Aperio Digital Pathology Slide Scanner (AT2) and associated software. Images were extracted from the S1BF of the somatosensory cortex, the CA3 of the hippocampus, and the VPM/VPL of the thalamus.
The glucagon-like peptide-1 (GLP-1) analogue, semaglutide is an FDA approved type II diabetes drug. It has been shown in previous reports that GLP1 receptor (GLP1R) agonists decrease the release of inflammatory cytokines by modulating microglial activity, but existing studies have not examined any activity on lysosome-related pathways. To test whether GLP1R agonism would reduce Batten disease pathology, we tested semaglutide in Batten disease cell models (FIGS. 18-19). Wild type (WT) and mutant mouse embryonic fibroblasts (MEFs) were treated with vehicle or semaglutide (10 nM, 100 nM, 1 μM; see FIG. 18). Cells were plated on in vitro day 0 and dosed with drug-containing media on DIV3 and DIV5. Analysis occurred on DIV7. Concentrations of drug are shown on the x-axis above each image column; genotypes are shown to the left of each row. […] Increasing concentrations of semaglutide are shown along the x-axis. […] Treatment with semaglutide (10 nM, 100 nM, 1 μM) had no impact on the accumulation of autofluorescent storage material (ASM) in Cln1^R151X, Cln2^R207X, Cln3^Δex7/8, Cln6^nclf, and Cln8^mnd MEFs (FIG. 18B).

As to `Cc1cccc(NC(=O)c2ccc(C(F)(F)F)cc2C(=O)O)n1` [AF38469, 2-((6-methylpyridin-2-yl)carbamoyl)-5-(trifluoromethyl)benzoic acid], the LysoTracker signal entry is reported as “significantly reduced” (40 nM, 400 nM, 4 μM, Cln1^R151X, Cln2^R207X, Cln6^nclf, Cln8^mnd, Cln11^−/− MEFs, DIV7, vs NCL vehicle); “significantly increased” (40 nM, Cln3^Δex7/8 MEFs, DIV7); “significantly reduced” (400 nM, Cln3^Δex7/8 MEFs, DIV7); “had no impact” (4 μM, Cln3^Δex7/8 MEFs, DIV7).
For `CC[C@H](C)[C@H](N)C(=O)NCCN1CCOCC1` [LM11A-31, N-[2-(morpholin-4-yl)ethyl]-L-isoleucinamide], the LysoTracker signal result is on record as “had no impact” (LM11A-31 100 nM, NCL MEFs); “significantly reduced” (LM11A-31 1 μM (mid dose), Cln1^R151X, Cln2^R207X MEFs); “decreasing trend” (LM11A-31 1 μM, Cln3^Δex7/8, Cln6^nclf, Cln8^mnd MEFs); “decreasing trend” (LM11A-31 10 μM, Cln1^R151X and Cln2^R207X MEFs); “decreasing trend” (LM11A-31 varying doses, Cln3^Δex7/8 and Cln6^nclf MEFs).
In the case of semaglutide, the LysoTracker signal result is listed as “had no impact” (semaglutide 10 nM and 100 nM, Cln8^mnd MEFs); “had no impact” (semaglutide 10 nM, 100 nM, 1 μM, Cln1^R151X and Cln6^nclf MEFs); “significantly reduced” (semaglutide 10 nM, 100 nM, 1 μM, Cln2^R207X MEFs); “had no impact” (semaglutide 10 nM, Cln3^Δex7/8 MEFs); “significantly reduced” (semaglutide 100 nM, 1 μM, Cln3^Δex7/8 MEFs); “significantly reduced” (semaglutide 1 μM, Cln8^mnd MEFs).
